Results: PubChem BioAssay AID2060502 (Molecular Pharmacology Branch, DTP, NCI, 2025)

System: 885724-159-R-J1-PDC complex spheroid viability
Assay: Anticancer human tumor 885724-159-R-J1-PDC patient-derived pancreatic adenocarcinoma cell line growth inhibition [GQUAD]
Conditions: for IC50: curve of first compound; for viability, T/C: stronger effect = lower value
Excerpt: DNA G-quadruplex Stabilizer Agents in Combinations in Complex Spheroids
A high-throughput screen of multi-cell type tumor spheroids was designed to identify active combinations of DNA G-quadruplex stabilizer agents and targeted small molecules. Complex spheroids include a stromal component modeled by human endothelial cells (HUVEC) and fibroblasts modeled by human mesenchymal stem cells (MSCs). The concentration ranges selected for each drug and investigational agent were based upon clinically achievable concentrations if the clinical Cmax of the agent was known.
Compounds. The drugs and investigational agents: pidnarulex (CX-5461; NSC782164), APTO-253 (NSC789042), BRACO-19 (NSC847499), peposertib (NSC802822), ceralasertib (NSC780249), elimusertib (NSC800525), camonsertib (NSC841442), AZD-1390 (NSC803789), olaparib (NSC753686), talazoparib (NSC767125), ART-558 (NSC835418), sotorasib (NSC818433), MRTX-1133 (NSC836407), SN-38 (NSC673596), topotecan (NSC609699), etoposide (NSC141540), doxorubicin (NSC123127), gemcitabine (NSC613327), 5-fluorouracil (NSC19893), paclitaxel (NSC125973), vemurafenib (NSC761431), panobinostat (NSC761190), R-306465 (JNJ-16241199; NSC773264), adavosertib (NSC754352), TP-3654 (NSC805149), carboplatin (NSC241240), KSQ-4279 (NSC840948), and staurosporine (NSC755774) were obtained from the National Cancer Institute (NCI) Developmental Therapeutics Program Chemical Repository (34). The FDA-approved anticancer drug set is available from the NCI Developmental Therapeutics Program. […] The stock solutions were prepared in dimethyl sulfoxide (DMSO, Sigma-Aldrich, St. Louis, MO, cat. D2650) at 800-fold the tested concentration and stored at -70 degrees C prior to their use. All drugs and investigational agents were tested over a range starting from a high concentration at or near the clinical Cmax and decreasing in half-log increments. If the clinical Cmax for an agent had not been determined, the highest concentration tested was 10 microM.
2.3 Cell Culture. All cells were maintained in an incubator at 37 degrees C and 5% CO2 with 95% humidity. The PDC lines were cultured according to standard operating procedures established by the NCI PDMR. All PDCs were thawed and cultured in Matrigel-coated flasks prepared with a working solution of 1X Ham's F-12 nutrient mix, without supplementation (Invitrogen, cat. 11765054), 100 U/mL penicillin-streptomycin (Invitrogen, cat. 15140122), and 2.5% Matrigel (Corning Inc., cat. 354248) for the first three passages. The 857933-349-R-J2-PDC line was cultured in 6C/Colon 1B media, which includes advanced DMEM/F-12 (Thermo Fisher Scientific, cat. 12634028), 10 mM HEPES (Thermo Fisher Scientific, cat. 15630080), 1X GlutaMAX supplement (Thermo Fisher Scientific, cat. 35050061), 0.1 mg/mL primocin (InvivoGen, cat. ant-pm-2), 10% defined fetal bovine serum, heat inactivated (HyClone Laboratories Inc., cat. SH30070.03HI), 50% L-WRN conditioned media (ATCC, cat. CRL-3276), 1.25 mM N-Acetyl-L-cysteine (Sigma-Aldrich, cat. A9165), 10 mM nicotinamide (Sigma-Aldrich, cat. N0636), 1X B-27 supplement (Thermo Fisher Scientific, cat. 17504044), 1X N-2 supplement (Thermo Fisher Scientific, cat. 17502048), 10 microM Y-27632 dihydrochloride (Tocris Bioscience, cat. 1254), and 50 ng/mL human EGF recombinant protein (Thermo Fisher Scientific, cat. PHG0311). The 485176-168-R4-J1-PDC line was cultured in Panc media, which includes all 6C/Colon 1B media components plus 100 ng/mL human FGF-10 (Thermo Fisher Scientific, cat. 100-26), 500 nM SB-431542 (Selleckchem, cat. S1067), and gastrin (Tocris, cat. 3006).
[…]

[1] = second compound 0.0316 µM, first compound 0.0316 µM
[2] = second compound 0.0316 µM, first compound 0.316 µM
[3] = second compound 0.1 µM, first compound 0.0316 µM
[4] = second compound 0.1 µM, first compound 0.316 µM
[5] = second compound 0.316 µM, first compound 0.0316 µM
[6] = second compound 0.316 µM, first compound 0.316 µM
[7] = second compound 1 µM, first compound 0.0316 µM
[8] = second compound 1 µM, first compound 0.316 µM
[9] = second compound 3.16 µM, first compound 0.0316 µM
[10] = second compound 3.16 µM, first compound 0.316 µM
[11] = second compound 10 µM, first compound 0.0316 µM
[12] = second compound 10 µM, first compound 0.316 µM
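Also: spheroids exposed to agents for seven days before readout.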
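For viability, T/C in this document: percent of vehicle control viability where 100% = DMSO wells.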

In the case of `CCCS(=O)(=O)Nc1ccc(F)c(C(=O)c2c[nH]c3ncc(-c4ccc(Cl)cc4)cc23)c1F` + CN(C)c1ccc(Nc2c3ccc(NC(=O)CCN4CCCC4)cc3nc3cc(NC(=O)CCN4CCCC4)ccc23)cc1, the IC50 (second compound 0.0316 µM) is reported as greater than 10000 nM, the IC50 (second compound 0.1 µM) is reported as greater than 10000 nM and the IC50 (second compound 0.316 µM) is reported as greater than 10000 nM. The IC50 (second compound 1 µM) was greater than 10000 nM, the IC50 (second compound 3.16 µM) was 9740 nM and the IC50 (second compound 10 µM) was 5730 nM. For the same compound, the viability, T/C [1] was 112%, the viability, T/C (second compound 0.0316 µM, first compound 0.1 µM) was 114% and the viability, T/C [2] was 116%. The viability, T/C (second compound 0.0316 µM, first compound 1 µM) was 130%, the viability, T/C (second compound 0.0316 µM, first compound 3.16 µM) was 139% and the viability, T/C (second compound 0.0316 µM, first compound 10 µM) was 84.7%. For the same compound, the viability, T/C [3] was 99.8%, the viability, T/C (second compound 0.1 µM, first compound 0.1 µM) was 98.1% and the viability, T/C [4] was 121%. For the same compound, the viability, T/C (second compound 0.1 µM, first compound 1 µM) was 129%, the viability, T/C (second compound 0.1 µM, first compound 3.16 µM) was 133% and the viability, T/C (second compound 0.1 µM, first compound 10 µM) was 65.5%. It also gave a viability, T/C [5] of 97%, a viability, T/C (second compound 0.316 µM, first compound 0.1 µM) of 99.3% and a viability, T/C [6] of 108%. The viability, T/C (second compound 0.316 µM, first compound 1 µM) was 107%, the viability, T/C (second compound 0.316 µM, first compound 3.16 µM) was 146% and the viability, T/C (second compound 0.316 µM, first compound 10 µM) was 66%. For the same compound, the viability, T/C [7] was 80.4%, the viability, T/C (second compound 1 µM, first compound 0.1 µM) was 82% and the viability, T/C [8] was 109%. For the same compound, the viability, T/C (second compound 1 µM, first compound 1 µM) was 118%, the viability, T/C (second compound 1 µM, first compound 3.16 µM) was 134% and the viability, T/C (second compound 1 µM, first compound 10 µM) was 64.4%. The viability, T/C [9] was 81%, the viability, T/C (second compound 3.16 µM, first compound 0.1 µM) was 74.2% and the viability, T/C [10] was 101%. For the same compound, the viability, T/C (second compound 3.16 µM, first compound 1 µM) was 101%, the viability, T/C (second compound 3.16 µM, first compound 3.16 µM) was 114% and the viability, T/C (second compound 3.16 µM, first compound 10 µM) was 48.9%. For the same compound, the viability, T/C [11] was 80.2%, the viability, T/C (second compound 10 µM, first compound 0.1 µM) was 73.1% and the viability, T/C [12] was 82.1%. For the same compound, the viability, T/C (second compound 10 µM, first compound 1 µM) was 99.5%, the viability, T/C (second compound 10 µM, first compound 3.16 µM) was 93.9% and the viability, T/C (second compound 10 µM, first compound 10 µM) was 16.5%.

`Cc1[nH]c2ccccc2c1CCNCc1ccc(/C=C/C(=O)NO)cc1` + CN(C)c1ccc(Nc2c3ccc(NC(=O)CCN4CCCC4)cc3nc3cc(NC(=O)CCN4CCCC4)ccc23)cc1 was tested, and the IC50 (second compound 0.0316 µM) was greater than 316 nM, the IC50 (second compound 0.1 µM) was greater than 316 nM and the IC50 (second compound 0.316 µM) was 286 nM. It also gave an IC50 (second compound 1 µM) of 214 nM, an IC50 (second compound 3.16 µM) of 92.9 nM and an IC50 (second compound 10 µM) of 152 nM. The viability, T/C (second compound 0.0316 µM, first compound 0.000999 µM) was 103%, the viability, T/C (second compound 0.0316 µM, first compound 0.00316 µM) was 98.3% and the viability, T/C (second compound 0.0316 µM, first compound 0.00999 µM) was 93.1%. It also gave a viability, T/C [1] of 96.9%, a viability, T/C (second compound 0.0316 µM, first compound 0.0999 µM) of 124% and a viability, T/C [2] of 60.1%. The viability, T/C (second compound 0.1 µM, first compound 0.000999 µM) was 99.8%, the viability, T/C (second compound 0.1 µM, first compound 0.00316 µM) was 91.7% and the viability, T/C (second compound 0.1 µM, first compound 0.00999 µM) was 95%. It also gave a viability, T/C [3] of 125%, a viability, T/C (second compound 0.1 µM, first compound 0.0999 µM) of 105% and a viability, T/C [4] of 54.1%. The viability, T/C (second compound 0.316 µM, first compound 0.000999 µM) was 84.7%, the viability, T/C (second compound 0.316 µM, first compound 0.00316 µM) was 94% and the viability, T/C (second compound 0.316 µM, first compound 0.00999 µM) was 95.3%. It also gave a viability, T/C [5] of 84.6%, a viability, T/C (second compound 0.316 µM, first compound 0.0999 µM) of 112% and a viability, T/C [6] of 45.7%. The viability, T/C (second compound 1 µM, first compound 0.000999 µM) was 90.3%, the viability, T/C (second compound 1 µM, first compound 0.00316 µM) was 75.6% and the viability, T/C (second compound 1 µM, first compound 0.00999 µM) was 75.5%. The viability, T/C [7] was 77.5%, the viability, T/C (second compound 1 µM, first compound 0.0999 µM) was 69.8% and the viability, T/C [8] was 40.3%. It also gave a viability, T/C (second compound 3.16 µM, first compound 0.000999 µM) of 65.2%, a viability, T/C (second compound 3.16 µM, first compound 0.00316 µM) of 81.4% and a viability, T/C (second compound 3.16 µM, first compound 0.00999 µM) of 82.1%. For the same compound, the viability, T/C [9] was 73.1%, the viability, T/C (second compound 3.16 µM, first compound 0.0999 µM) was 48.5% and the viability, T/C [10] was 40.1%. It also gave a viability, T/C (second compound 10 µM, first compound 0.000999 µM) of 65%, a viability, T/C (second compound 10 µM, first compound 0.00316 µM) of 58.3% and a viability, T/C (second compound 10 µM, first compound 0.00999 µM) of 59.6%. The viability, T/C [11] was 55.6%, the viability, T/C (second compound 10 µM, first compound 0.0999 µM) was 69.3% and the viability, T/C [12] was 30%.
